ChEMBL document CHEMBL1141581, “Cyclic guanidines as dual 5-HT5A/5-HT7 receptor ligands: structure-activity relationship elucidation” (Bioorg Med Chem Lett, 2008)

Columns and labels:
[1] = target: T1, 5-hydroxytryptamine receptor 5A (Homo sapiens, UniProt P47898); assay: Displacement of [3H]LSD from human recombinant 5HT5A receptor expressed in HEK293-EBNA cells; assay type: cell-based
[2] = target: T2, 5-hydroxytryptamine receptor 1A (Homo sapiens, UniProt P08908); assay: Displacement of [3H]8-OH-DPAT from human recombinant 5HT1A receptor expressed in HEK293-EBNA cells; assay type: cell-based
T2 sequence (P08908 whole entry): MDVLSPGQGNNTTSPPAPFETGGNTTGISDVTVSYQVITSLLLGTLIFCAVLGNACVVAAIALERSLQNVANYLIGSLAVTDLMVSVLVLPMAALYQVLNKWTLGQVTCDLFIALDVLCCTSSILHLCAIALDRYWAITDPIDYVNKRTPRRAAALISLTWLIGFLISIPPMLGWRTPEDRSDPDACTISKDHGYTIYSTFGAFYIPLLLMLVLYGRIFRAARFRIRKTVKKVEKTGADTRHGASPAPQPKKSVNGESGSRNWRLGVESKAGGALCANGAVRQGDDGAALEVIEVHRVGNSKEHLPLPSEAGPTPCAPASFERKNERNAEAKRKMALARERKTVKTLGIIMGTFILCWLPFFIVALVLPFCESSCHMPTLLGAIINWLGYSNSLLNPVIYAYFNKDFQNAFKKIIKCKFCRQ

[3] = target: 5-hydroxytryptamine receptor 1D (Homo sapiens, UniProt P28221); assay: Displacement of [3H]LSD from human recombinant 5HT1D receptor expressed in HEK293-EBNA cells; assay type: cell-based
[4] = target: 5-hydroxytryptamine receptor 2A (Homo sapiens, UniProt P28223); assay: Displacement of [3H]ketanserin from human recombinant 5HT2A receptor expressed in HEK293-EBNA cells; assay type: cell-based
[5] = target: T3, 5-hydroxytryptamine receptor 2C (Homo sapiens, UniProt P28335); assay: Displacement of [3H]mesulergine from human recombinant 5HT2C receptor expressed in HEK293-EBNA cells; assay type: cell-based
T3 sequence (P28335 whole entry): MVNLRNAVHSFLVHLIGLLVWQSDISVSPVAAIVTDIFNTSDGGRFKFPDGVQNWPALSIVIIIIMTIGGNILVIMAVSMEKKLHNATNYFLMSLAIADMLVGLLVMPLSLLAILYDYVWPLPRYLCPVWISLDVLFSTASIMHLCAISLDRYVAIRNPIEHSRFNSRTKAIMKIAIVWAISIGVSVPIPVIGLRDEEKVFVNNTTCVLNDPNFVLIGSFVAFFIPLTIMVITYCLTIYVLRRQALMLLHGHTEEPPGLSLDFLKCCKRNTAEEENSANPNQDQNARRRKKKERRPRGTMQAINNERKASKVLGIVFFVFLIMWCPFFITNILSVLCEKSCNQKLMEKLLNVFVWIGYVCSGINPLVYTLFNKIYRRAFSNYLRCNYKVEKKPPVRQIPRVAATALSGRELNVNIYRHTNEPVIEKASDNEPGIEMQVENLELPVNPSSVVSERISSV

[6] = target: T4, 5-hydroxytryptamine receptor 3A (Homo sapiens, UniProt P46098); assay: Binding affinity to human 5HT3 receptor
T4 sequence (P46098 whole entry): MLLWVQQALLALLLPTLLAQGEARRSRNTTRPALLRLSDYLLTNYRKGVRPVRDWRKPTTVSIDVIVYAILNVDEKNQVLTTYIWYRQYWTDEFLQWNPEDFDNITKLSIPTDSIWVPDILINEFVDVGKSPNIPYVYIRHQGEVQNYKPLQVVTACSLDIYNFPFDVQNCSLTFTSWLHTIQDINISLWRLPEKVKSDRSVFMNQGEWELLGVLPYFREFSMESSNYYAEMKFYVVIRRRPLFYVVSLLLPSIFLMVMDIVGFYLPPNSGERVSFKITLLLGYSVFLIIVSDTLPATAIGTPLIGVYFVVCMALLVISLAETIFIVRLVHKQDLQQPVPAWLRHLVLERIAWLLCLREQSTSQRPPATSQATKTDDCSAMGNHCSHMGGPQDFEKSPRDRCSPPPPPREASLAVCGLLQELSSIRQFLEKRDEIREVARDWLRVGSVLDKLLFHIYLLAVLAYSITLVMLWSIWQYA

[7] = target: 5-hydroxytryptamine receptor 6 (Homo sapiens, UniProt P50406); assay: Displacement of [3H]LSD from human recombinant 5HT6 receptor expressed in HEK293-EBNA cells; assay type: cell-based
[8] = target: 5-hydroxytryptamine receptor 7 (Homo sapiens, UniProt P34969); assay: Displacement of [3H]LSD from human recombinant 5HT7 receptor expressed in HEK293-EBNA cells; assay type: cell-based
[9] = Protein binding in mouse plasma; assay type: ADME, cell-free; settings: read-out: PPB (converted)
[10] = target: T1, 5-hydroxytryptamine receptor 5A; assay: Antagonist activity at human recombinant 5HT5A receptor expressed in HEK293-EBNA cells by [35S]GTP-gamma-S binding assay; assay type: functional, cell-based
Histamine H1 receptor = Histamine H1 receptor (Homo sapiens, UniProt P35367); assay: Binding affinity to histamine H1 receptor
[11] = Inhibition of adrenergic alpha-1 receptor at 1 uM
[12] = Inhibition of adrenergic alpha-2 receptor
[13] = target: T5, 5-hydroxytryptamine receptor 2B (Homo sapiens, UniProt P41595); assay: Inhibition of 5HT2B receptor
[14] = target: T5, 5-hydroxytryptamine receptor 2B; settings: 1 uM
Description: Inhibition of 5HT2B receptor at 1 uM

Homo sapiens [15] = species: Homo sapiens; assay: Selectivity for human recombinant 5HT5A receptor over human recombinant 5HT2A receptor
Homo sapiens [16] = species: Homo sapiens; assay: Selectivity for human recombinant 5HT5A receptor over human 5HT3 receptor
Homo sapiens [17] = species: Homo sapiens; assay: Selectivity for human recombinant 5HT5A receptor over human recombinant 5HT6 receptor
Homo sapiens [18] = species: Homo sapiens; assay: Selectivity for human recombinant 5HT5A receptor over human recombinant 5HT1D receptor

Sequence of 5-hydroxytryptamine receptor 1D (P28221 whole entry): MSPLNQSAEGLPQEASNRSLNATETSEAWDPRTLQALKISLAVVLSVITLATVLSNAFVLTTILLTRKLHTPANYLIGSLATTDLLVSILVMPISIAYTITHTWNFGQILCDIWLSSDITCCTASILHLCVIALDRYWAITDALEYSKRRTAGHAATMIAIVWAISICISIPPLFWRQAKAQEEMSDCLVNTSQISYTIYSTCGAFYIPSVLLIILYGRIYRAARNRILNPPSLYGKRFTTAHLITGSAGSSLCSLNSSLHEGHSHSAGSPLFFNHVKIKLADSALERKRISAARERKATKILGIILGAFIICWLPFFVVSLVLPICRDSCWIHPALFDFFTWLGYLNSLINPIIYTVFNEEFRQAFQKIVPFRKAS
T1 sequence (P47898 whole entry): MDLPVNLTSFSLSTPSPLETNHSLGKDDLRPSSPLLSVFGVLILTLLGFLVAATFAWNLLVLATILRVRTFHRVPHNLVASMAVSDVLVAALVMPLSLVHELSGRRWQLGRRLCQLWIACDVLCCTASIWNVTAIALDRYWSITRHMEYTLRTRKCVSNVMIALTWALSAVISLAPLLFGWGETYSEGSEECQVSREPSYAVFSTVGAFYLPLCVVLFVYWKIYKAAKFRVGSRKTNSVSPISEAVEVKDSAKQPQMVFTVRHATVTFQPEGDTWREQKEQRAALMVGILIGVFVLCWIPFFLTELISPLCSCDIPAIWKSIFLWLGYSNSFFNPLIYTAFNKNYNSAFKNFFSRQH
Sequence of 5-hydroxytryptamine receptor 7 (P34969 whole entry): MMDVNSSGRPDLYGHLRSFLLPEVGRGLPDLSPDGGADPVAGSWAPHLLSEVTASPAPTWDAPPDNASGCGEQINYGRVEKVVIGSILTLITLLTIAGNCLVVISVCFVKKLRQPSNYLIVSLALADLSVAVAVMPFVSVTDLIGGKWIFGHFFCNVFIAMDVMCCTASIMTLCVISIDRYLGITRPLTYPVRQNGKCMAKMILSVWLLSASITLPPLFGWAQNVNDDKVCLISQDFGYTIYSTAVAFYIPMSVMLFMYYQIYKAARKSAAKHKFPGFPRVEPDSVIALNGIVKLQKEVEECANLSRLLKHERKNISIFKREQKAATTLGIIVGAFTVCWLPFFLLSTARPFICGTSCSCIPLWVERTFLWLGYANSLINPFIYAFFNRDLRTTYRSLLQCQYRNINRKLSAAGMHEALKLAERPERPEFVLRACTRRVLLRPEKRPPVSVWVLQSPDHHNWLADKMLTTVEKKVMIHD
T5 sequence (P41595 whole entry): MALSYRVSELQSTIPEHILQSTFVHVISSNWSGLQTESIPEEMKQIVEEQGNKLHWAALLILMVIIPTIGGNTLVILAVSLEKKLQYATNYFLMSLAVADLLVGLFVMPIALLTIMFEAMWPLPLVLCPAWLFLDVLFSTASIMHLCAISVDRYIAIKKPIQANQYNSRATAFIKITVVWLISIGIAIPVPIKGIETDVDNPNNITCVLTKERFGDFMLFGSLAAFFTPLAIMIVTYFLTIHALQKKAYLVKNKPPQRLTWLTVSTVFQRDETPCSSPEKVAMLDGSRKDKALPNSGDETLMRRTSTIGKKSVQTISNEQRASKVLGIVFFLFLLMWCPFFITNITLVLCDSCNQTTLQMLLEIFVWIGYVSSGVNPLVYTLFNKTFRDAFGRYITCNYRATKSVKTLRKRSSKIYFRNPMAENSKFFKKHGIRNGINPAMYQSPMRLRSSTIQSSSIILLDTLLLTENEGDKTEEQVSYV
Sequence of 5-hydroxytryptamine receptor 6 (P50406 whole entry): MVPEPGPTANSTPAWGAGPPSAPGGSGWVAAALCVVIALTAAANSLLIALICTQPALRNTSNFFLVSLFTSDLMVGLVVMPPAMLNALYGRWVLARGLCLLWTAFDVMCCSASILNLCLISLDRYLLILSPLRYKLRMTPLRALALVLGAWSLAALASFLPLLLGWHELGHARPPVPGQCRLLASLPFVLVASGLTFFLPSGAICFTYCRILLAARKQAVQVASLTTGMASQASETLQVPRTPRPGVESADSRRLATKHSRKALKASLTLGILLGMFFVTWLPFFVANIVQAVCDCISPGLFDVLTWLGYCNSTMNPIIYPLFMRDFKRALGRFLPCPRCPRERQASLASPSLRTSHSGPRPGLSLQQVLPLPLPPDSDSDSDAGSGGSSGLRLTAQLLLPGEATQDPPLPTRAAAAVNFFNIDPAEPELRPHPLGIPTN
Sequence of 5-hydroxytryptamine receptor 2A (P28223 whole entry): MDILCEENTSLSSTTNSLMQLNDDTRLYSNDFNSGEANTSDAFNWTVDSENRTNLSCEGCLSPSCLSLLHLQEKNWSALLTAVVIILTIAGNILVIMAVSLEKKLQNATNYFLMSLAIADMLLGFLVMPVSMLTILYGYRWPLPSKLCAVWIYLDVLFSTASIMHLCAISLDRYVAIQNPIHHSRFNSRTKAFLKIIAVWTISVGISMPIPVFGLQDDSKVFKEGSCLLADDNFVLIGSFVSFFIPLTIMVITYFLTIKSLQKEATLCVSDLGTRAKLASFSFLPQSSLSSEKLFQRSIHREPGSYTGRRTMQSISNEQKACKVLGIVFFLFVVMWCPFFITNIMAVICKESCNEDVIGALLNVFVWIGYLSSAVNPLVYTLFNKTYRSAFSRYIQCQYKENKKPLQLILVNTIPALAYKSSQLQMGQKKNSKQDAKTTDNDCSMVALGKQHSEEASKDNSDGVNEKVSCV
Sequence of Histamine H1 receptor (P35367 whole entry): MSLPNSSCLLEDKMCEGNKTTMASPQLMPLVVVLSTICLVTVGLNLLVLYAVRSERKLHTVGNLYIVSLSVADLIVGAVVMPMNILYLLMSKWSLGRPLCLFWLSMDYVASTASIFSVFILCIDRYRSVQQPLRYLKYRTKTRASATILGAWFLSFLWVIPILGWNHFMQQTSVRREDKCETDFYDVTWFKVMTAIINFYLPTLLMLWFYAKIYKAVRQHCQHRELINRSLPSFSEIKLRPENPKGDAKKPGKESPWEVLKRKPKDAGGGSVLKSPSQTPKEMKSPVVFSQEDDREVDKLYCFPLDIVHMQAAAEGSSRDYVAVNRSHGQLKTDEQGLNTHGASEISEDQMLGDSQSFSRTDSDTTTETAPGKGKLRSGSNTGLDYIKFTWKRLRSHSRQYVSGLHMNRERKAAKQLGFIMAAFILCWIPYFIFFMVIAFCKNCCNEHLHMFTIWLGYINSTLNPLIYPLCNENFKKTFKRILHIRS

Ki [1] [nM] | Ki [2] [nM] | Ki [3] [nM] | Ki [5] [nM] | Ki [8] [nM] | Compound | also measured
99 | 1700 | 3590 | 658 | 793 | NC1=Nc2cccc(Cl)c2CN1 [listing 1 of 2 here] | Ki [4]: 1160 nM; Ki [6]: 1050 nM; Ki [7]: > 10000 nM
– | 192 | 1270 | 152 | 15.9 | CC1NC(N)=Nc2cccc(Cl)c21 (stereo not given) | fraction unbound [9]: 0.16; Kb [10]: 3.02 nM; Ki (Histamine H1 receptor): 1100 nM; inhibition [11]: > 60%; IC50 [12]: > 400 nM; IC50 [13]: > 400 nM; inhibition [14]: > 60%
– | 246 | 454 | 94 | 13.2 | CNC1=Nc2ccc(Cl)c(Cl)c2C(C)N1 (stereo not given) | Ratio Ki (Homo sapiens [15]): > 30; Ratio Ki (Homo sapiens [16]): > 30; Ratio Ki (Homo sapiens [17]): > 30
892 | – | – | – | – | NC1=Nc2c(Cl)cccc2CN1 | –
43 | 1080 | 1260 | 208 | 294 | NC1=Nc2ccc(Cl)c(Cl)c2CN1 | Ki [4]: 434 nM; Ki [6]: 172 nM; Ki [7]: 1160 nM
26.5 | 765 | 1270 | 155 | 73 | CCC1NC(N)=Nc2ccc(Cl)c(Cl)c21 (stereo not given) | –
2800 | – | – | – | – | CN(C)C1=Nc2ccccc2CN1 | –
1170 | – | – | – | – | CC1(C)NC(N)=Nc2ccccc21 | –
> 10000 | – | – | – | – | CN1Cc2ccccc2N=C1N | –
97 | – | – | – | – | COc1cccc2c1N=C(N)NC2 | –
1380 | – | – | – | – | COc1ccc2c(c1)N=C(N)NC2 | –
1790 | – | – | – | – | CNC1=Nc2ccccc2CN1 | –
– | 105 | 143 | 19 | 2.5 | COc1cc(Cl)c(C)c2c1N=C(N)NC2C (stereo not given) | Ratio Ki (Homo sapiens [15]): > 30; Ratio Ki (Homo sapiens [16]): > 30; Ratio Ki (Homo sapiens [17]): > 30
22.9 | 339 | 1160 | 74 | 12.4 | COc1c(Cl)ccc2c1C(C)NC(N)=N2 (stereo not given) | –
– | 32 | 446 | 556 | 8.2 | COc1cccc2c1N=C(N)NC2C (stereo not given) | Ratio Ki (Homo sapiens [15]): > 30; Ratio Ki (Homo sapiens [16]): > 30; Ratio Ki (Homo sapiens [17]): > 30
– | – | – | – | – | NC1=Nc2cccc(Cl)c2CN1 [listing 2 of 2 here] | Ki ([1]; hek293-ebna): 99 nM
658 | – | – | – | – | NC1=Nc2ccccc2CN1 | –
– | 389 | 1460 | 235 | 15.3 | CNC1=Nc2cccc(Cl)c2C(C)N1 (stereo not given) | Ratio Ki (Homo sapiens [15]): > 30; Ratio Ki (Homo sapiens [16]): > 30; Ratio Ki (Homo sapiens [17]): > 30; Kb [10]: 7.41 nM

Ki [1] [nM] | Ki [2] [nM] | Ki [3] [nM] | Ki [5] [nM] | Ki [8] [nM] | Compound | also measured
– | 265 | 70 | 488 | 1 | CC(C)Oc1cccc2c1N=C(N)NC2C (stereo not given) | Ratio Ki (Homo sapiens [18]): 7; Ratio Ki (Homo sapiens [15]): > 30; Ratio Ki (Homo sapiens [16]): > 30; Ratio Ki (Homo sapiens [17]): > 30
24 | – | – | – | – | CCC1NC(N)=Nc2ccccc21 (stereo not given) | –
647 | – | – | – | – | NC1=Nc2cc(F)ccc2CN1 | –
550 | – | – | – | – | NC1=Nc2cccc(F)c2CN1 | –
347 | – | – | – | – | NC1=Nc2cc(Cl)ccc2CN1 | –
882 | – | – | – | – | Cc1ccc2c(c1)CNC(N)=N2 | –
911 | – | – | – | – | NC1=Nc2ccc(F)cc2CN1 | –
463 | – | – | – | – | Cc1cccc2c1N=C(N)NC2 | –
38 | – | – | – | – | CC1NC(N)=Nc2ccccc21 (stereo not given) | –
274 | – | – | – | – | Cc1ccc2c(c1)N=C(N)NC2 | –
805 | – | – | – | – | CCCC1NC(N)=Nc2ccccc21 (stereo not given) | –
1990 | – | – | – | – | NC1=Nc2c(F)cccc2CN1 | –
– | 181 | 260 | 26 | 8.7 | CC1NC(N)=Nc2ccc(Cl)c(Cl)c21 (stereo not given) | Ratio Ki (Homo sapiens [15]): > 30; Ratio Ki (Homo sapiens [16]): > 30; Ratio Ki (Homo sapiens [17]): > 30; Ki (Histamine H1 receptor): 8 nM
– | 669 | 160 | 970 | 2.4 | CNC1=Nc2c(OC(C)C)cccc2C(C)N1 (stereo not given) | Ratio Ki (Homo sapiens [18]): 7; Ratio Ki (Homo sapiens [15]): > 30; Ratio Ki (Homo sapiens [16]): > 30; Ratio Ki (Homo sapiens [17]): > 30
84.4 | 1080 | > 10000 | 380 | 97.4 | CCC1NC(N)=Nc2cccc(Cl)c21 (stereo not given) | –
807 | – | – | – | – | NC1=Nc2ccc(Cl)cc2CN1 | –
145 | – | – | – | – | Cc1cccc2c1CNC(N)=N2 | –
6.5 | 91 | 966 | 74 | 2.4 | CC1NC(N)=Nc2c(Cl)ccc(Cl)c21 (stereo not given) | Ratio Ki (Homo sapiens [15]): > 30; Ratio Ki (Homo sapiens [16]): > 30; Ratio Ki (Homo sapiens [17]): > 30
